This note sets out measurements from patent US20240158446A1, “CYCLIC COMPOUND HAVING SELECTIVE INHIBITORY ACTION ON KRAS OVER HRAS AND NRAS” (CHUGAI SEIYAKU KABUSHIKI KAISHA, priority 2021, published 2024).

The target in assay [1] is GDP-bound KRAS wild-type protein (Homo sapiens, UniProt P01116). The assay can be described thus: Binding to KRAS by surface plasmon resonance (SPR), Single Cycle Kinetics. The conditions noted are these: SPR, Single Cycle Kinetics, GDP-bound KRAS wild-type protein; read-out: KRAS KD. On the technique in general: In SPR one partner is held on a chip, and binding of the other changes the refractive index at the surface.

The target in assay [2] is GDP-bound NRAS wild-type protein (Homo sapiens, UniProt P01111). The assay can be described thus: Binding to NRAS by surface plasmon resonance (SPR), Single Cycle Kinetics. Conditions: ratio of KD for GDP-bound NRAS wild-type protein to KD for KRAS, SPR.
Assay [3] has as its system human lung cancer strain NCI-H441. The assay can be described thus: cells. The conditions noted are these: NCI-H441, 96 h, read-out: NCI-H441 IC50 (nM), NCI-H441 cell proliferation, 4 days, CellTiter-Glo. (In ATP-based viability assays light output follows the ATP content of the culture.);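 also: cell proliferation inhibition after four days measured by CellTiter-Glo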
The target in assay [4] is GDP-bound HRAS wild-type protein (Homo sapiens, UniProt P01112). The assay is described as follows: Binding to HRAS by surface plasmon resonance (SPR), Single Cycle Kinetics. Conditions: ratio of KD for GDP-bound HRAS wild-type protein to KD for KRAS, SPR.
Sequence of GDP-bound HRAS wild-type protein (P01112 whole entry): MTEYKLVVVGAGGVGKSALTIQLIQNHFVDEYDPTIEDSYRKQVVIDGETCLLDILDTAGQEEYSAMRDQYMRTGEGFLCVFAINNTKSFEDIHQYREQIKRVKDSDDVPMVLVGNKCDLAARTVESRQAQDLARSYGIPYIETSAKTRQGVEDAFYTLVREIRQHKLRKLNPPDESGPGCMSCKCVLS

Sequence of GDP-bound NRAS wild-type protein (P01111 whole entry): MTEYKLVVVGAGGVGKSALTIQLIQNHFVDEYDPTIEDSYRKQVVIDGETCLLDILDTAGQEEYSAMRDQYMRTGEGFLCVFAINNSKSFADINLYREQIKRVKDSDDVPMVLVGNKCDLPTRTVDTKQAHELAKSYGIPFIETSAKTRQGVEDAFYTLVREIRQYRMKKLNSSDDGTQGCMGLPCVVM
Sequence of GDP-bound KRAS wild-type protein (P01116 whole entry): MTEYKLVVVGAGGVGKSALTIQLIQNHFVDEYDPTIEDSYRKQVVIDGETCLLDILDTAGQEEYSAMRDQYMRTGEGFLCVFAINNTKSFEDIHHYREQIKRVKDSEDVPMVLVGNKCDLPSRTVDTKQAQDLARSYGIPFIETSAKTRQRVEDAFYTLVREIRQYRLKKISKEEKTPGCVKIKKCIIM

Broadly, the Kd is the equilibrium constant for the complex coming apart. In the case of `CCO[C@@H]1C[C@H]2C(=O)NC3(CC(F)(F)C3)C(=O)N(C)[C@@H](C3CCCC3)C(=O)N3CCC[C@@H]3CC(=O)N(C)[C@@H](CC3CC3)C(=O)N[C@@H]([C@@H](C)CC)C(=O)N(C)CC(=O)N(C)[C@H]3C/C=C\CCN(C3=O)[C@@H](Cc3ccc(C(F)(F)F)cc3)C(=O)N(C)CC(=O)N[C@@H](CCc3cc(F)c(C(F)(F)F)c(F)c3)C(=O)N2C1` [PP1615], in assay [1], the Kd stood at 0.45 nM. Besides, the “NRAS/KRAS (KD ratio)” value in assay [2] was “B (a compound having 3 or more and less than 10 is denoted as B)”. In addition, in assay [3], the IC50 was 20.9 nM. For the same compound, the “HRAS/KRAS (KD ratio)” value in assay [4] was “B (a compound having 3 or more and less than 10 is denoted as B)”.
On to `CC[C@H](C)[C@@H]1NC(=O)[C@H](COC)N(C)C(=O)C[C@@H](C(=O)N(C)C)N(C)C(=O)[C@H](C2CCCC2)N(C)C(=O)C2(CC(C)(C)C2)NC(=O)[C@@H]2CC(F)(F)CN2C(=O)[C@H](CCc2cc(F)c(C(F)(F)F)c(F)c2)NC(=O)CN(C)C(=O)[C@H](Cc2ccc(C(F)(F)F)cc2)N2CC/C=C\C[C@@H](C2=O)N(C)C(=O)CN(C)C1=O` [PP1717], for which the Kd in assay [1] was determined as 0.051 nM. Moreover, the “NRAS/KRAS (KD ratio)” value in assay [2] was “A (a compound having 10 or more and less than 20 is denoted as A)”. The IC50 in assay [3] is 2.4 nM. In addition, the “HRAS/KRAS (KD ratio)” value in assay [4] was “A (a compound having 10 or more and less than 20 is denoted as A)”.
Turning to `CC[C@H](C)[C@@H]1NC(=O)[C@H](CC2CC2)N(C)C(=O)C[C@@H](C(=O)N(C)C)N(C)C(=O)[C@H](C2CCCC2)N(C)C(=O)C2(CCC2)NC(=O)[C@@H]2C[C@@H](C)CN2C(=O)[C@H](CCc2ccc(C(F)(F)F)c(OC)c2)NC(=O)CN(C)C(=O)[C@H](Cc2ccc(C)cc2)N2CC/C=C\C[C@@H](C2=O)N(C)C(=O)CN(C)C1=O` [PP1863], in assay [1], the Kd was determined as 0.13 nM. For the same compound, the “NRAS/KRAS (KD ratio)” value in assay [2] was “A (a compound having 10 or more and less than 20 is denoted as A)”. For the same compound, the IC50 in assay [3] is 88.8 nM. In addition, the “HRAS/KRAS (KD ratio)” value in assay [4] was “A (a compound having 10 or more and less than 20 is denoted as A)”.
With `CCO[C@@H]1C[C@H]2C(=O)NC3(CC(C)(C)C3)C(=O)N(C)[C@@H](C(CC)CC)C(=O)N3CCC[C@@H]3CC(=O)N(C)[C@@H](CC3CC3)C(=O)N[C@@H]([C@@H](C)CC)C(=O)N(C)CC(=O)N(C)[C@H]3C/C=C\CCN(C3=O)[C@@H](Cc3ccc(C(F)(F)F)cc3)C(=O)N(C)CC(=O)N[C@@H](CCc3cc(F)c(C(F)(F)F)c(F)c3)C(=O)N2C1` [PP1610], the equilibrium dissociation constant (Kd) in assay [1] came to 1.4 nM. In addition, the “NRAS/KRAS (KD ratio)” value in assay [2] was “A (a compound having 10 or more and less than 20 is denoted as A)”. Besides, the IC50 in assay [3] was found to be 86.8 nM. The “HRAS/KRAS (KD ratio)” value in assay [4] is “A (a compound having 10 or more and less than 20 is denoted as A)”.
Take `CCCN(C)C(=O)[C@@H]1CC(=O)N(C)[C@@H](CCOC)C(=O)N[C@@H]([C@@H](C)CC)C(=O)N(C)CC(=O)N(C)[C@H]2C/C=C\CCN(C2=O)[C@@H](Cc2ccc(C(F)(F)F)cc2)C(=O)N(C)CC(=O)N[C@@H](CCc2ccc(C(F)(F)F)c(OC)c2)C(=O)N2C[C@@H](C)C[C@H]2C(=O)NC2(CC(C)(C)C2)C(=O)N(C)[C@@H](C2CCCC2)C(=O)N1C` [PP2001]: in assay [1], the equilibrium dissociation constant (Kd) came out at 0.11 nM. Also, the “NRAS/KRAS (KD ratio)” value in assay [2] is “A (a compound having 10 or more and less than 20 is denoted as A)”. For the same compound, the IC50 in assay [3] came to 18.1 nM. Also, the “HRAS/KRAS (KD ratio)” value in assay [4] was “A (a compound having 10 or more and less than 20 is denoted as A)”.
Take `CCCN(C)C(=O)[C@@H]1CC(=O)N(C)[C@@H](C2CC2)C(=O)N[C@@H]([C@@H](C)CC)C(=O)N(C)CC(=O)N(C)[C@H]2C/C=C\CCN(C2=O)[C@@H](Cc2ccc(C(F)(F)F)cc2)C(=O)N(C)CC(=O)N[C@@H](CCc2ccc(C(F)(F)F)c(OC)c2)C(=O)N2C[C@H](OCC)C[C@H]2C(=O)NC2(CC(C)(C)C2)C(=O)N(C)[C@@H](C2CCCC2)C(=O)N1C` [PP1983]: the Kd in assay [1] came to 0.14 nM. In assay [2], the “NRAS/KRAS (KD ratio)” value is “AA (a compound having 20 or more is denoted as AA)”. Also, in assay [3], the IC50 worked out at 20.2 nM. Moreover, in assay [4], the “HRAS/KRAS (KD ratio)” value is “A (a compound having 10 or more and less than 20 is denoted as A)”.
As for `CC[C@H](C)[C@@H]1NC(=O)[C@H](CC(C)C)N(C)C(=O)C[C@@H](C(=O)N(C)C)N(C)C(=O)[C@H](C2CCCC2)N(C)C(=O)C2(CCC2)NC(=O)[C@@H]2C[C@@H](C)CN2C(=O)[C@H](CCc2ccc(C(F)(F)F)c(Cl)c2)NC(=O)CN(C)C(=O)[C@H](Cc2ccc(C)cc2)N2CC/C=C\C[C@@H](C2=O)N(C)C(=O)CN(C)C1=O` [PP1854], the Kd in assay [1] stood at 0.096 nM. The “NRAS/KRAS (KD ratio)” value in assay [2] was “A (a compound having 10 or more and less than 20 is denoted as A)”. Further, the IC50 in assay [3] was 5.2 nM. Besides, the “HRAS/KRAS (KD ratio)” value in assay [4] was “A (a compound having 10 or more and less than 20 is denoted as A)”.
In the case of `CCO[C@@H]1C[C@H]2C(=O)NC3(CC(F)(F)C3)C(=O)N(C)[C@@H](C3CCCC3)C(=O)N3CCC[C@@H]3CC(=O)N(C)[C@@H](CC)C(=O)N[C@@H]([C@@H](C)CC)C(=O)N(C)CC(=O)N(C)[C@H]3C/C=C\CCN(C3=O)[C@@H](Cc3ccc(C(F)(F)F)cc3)C(=O)N(C)CC(=O)N[C@@H](CCc3cc(F)c(C(F)(F)F)c(F)c3)C(=O)N2C1` [PP1609], in assay [1], the Kd turned out to be 0.2 nM. The “NRAS/KRAS (KD ratio)” value in assay [2] was “A (a compound having 10 or more and less than 20 is denoted as A)”. In addition, the IC50 in assay [3] came out at 37 nM. In addition, the “HRAS/KRAS (KD ratio)” value in assay [4] was “A (a compound having 10 or more and less than 20 is denoted as A)”.
Regarding `CC[C@H](C)[C@@H]1NC(=O)[C@H](C2CCC2)N(C)C(=O)C[C@@H](C(=O)N(C)CC)N(C)C(=O)[C@H](C2CCCC2)N(C)C(=O)C2(CC(C)(C)C2)NC(=O)[C@@H]2C[C@H](C)CN2C(=O)[C@H](CCc2ccc(C(F)(F)F)c(OC)c2)NC(=O)CN(C)C(=O)[C@H](Cc2ccc(C(F)(F)F)cc2)N2CC/C=C\C[C@@H](C2=O)N(C)C(=O)CN(C)C1=O` [PP2009], the Kd in assay [1] came out at 0.19 nM. Further, the “NRAS/KRAS (KD ratio)” value in assay [2] is “A (a compound having 10 or more and less than 20 is denoted as A)”. In addition, the IC50 in assay [3] amounted to 19.7 nM. The “HRAS/KRAS (KD ratio)” value in assay [4] was “A (a compound having 10 or more and less than 20 is denoted as A)”.
For the compound `CCCN(C)C(=O)[C@@H]1CC(=O)N(C)[C@@H](CCOC)C(=O)N[C@@H]([C@@H](C)CC)C(=O)N(C)CC(=O)N(C)[C@H]2C/C=C\CCN(C2=O)[C@@H](Cc2ccc(C(F)(F)F)cc2)C(=O)N(C)CC(=O)N[C@@H](CCc2ccc(C(F)(F)F)c(OC)c2)C(=O)N2C[C@H](OCC)C[C@H]2C(=O)NC2(CCC2)C(=O)N(C)[C@@H](C2CCCC2)C(=O)N1C` [PP2018], in assay [1], the Kd came to 0.1 nM. In addition, the “NRAS/KRAS (KD ratio)” value in assay [2] was “A (a compound having 10 or more and less than 20 is denoted as A)”. Moreover, the IC50 in assay [3] was 5.3 nM. Also, in assay [4], the “HRAS/KRAS (KD ratio)” value is “B (a compound having 3 or more and less than 10 is denoted as B)”.
As to `CCO[C@@H]1C[C@H]2C(=O)NC3(CC(C)(C)C3)C(=O)N(C)[C@@H](C(CC)CC)C(=O)N(C)[C@H](C3CCC3)CC(=O)N(C)[C@@H](CC3CC3)C(=O)N[C@@H]([C@@H](C)CC)C(=O)N(C)CC(=O)N(C)[C@H]3C/C=C\CCN(C3=O)[C@@H](Cc3ccc(C(F)(F)F)cc3)C(=O)N(C)CC(=O)N[C@@H](CCc3cc(F)c(C(F)(F)F)c(F)c3)C(=O)N2C1` [PP1634], the Kd in assay [1] was 5.1 nM. For the same compound, the “NRAS/KRAS (KD ratio)” value in assay [2] is “A (a compound having 10 or more and less than 20 is denoted as A)”. For the same compound, the IC50 in assay [3] was 144 nM. Moreover, the “HRAS/KRAS (KD ratio)” value in assay [4] is “A (a compound having 10 or more and less than 20 is denoted as A)”.
In the case of `CCO[C@@H]1C[C@H]2C(=O)NC3(CC(C)(C)C3)C(=O)N(C)[C@@H](C3CCCC3)C(=O)N(C)[C@H](C(=O)N(C)C)CC(=O)N(C)[C@@H](C)C(=O)N[C@@H]([C@@H](C)CC)C(=O)N(C)CC(=O)N(C)[C@H]3C/C=C\CCN(C3=O)[C@@H](Cc3ccc(C(F)(F)F)cc3)C(=O)N(C)CC(=O)N[C@@H](CCc3ccc(C(F)(F)F)c(OC)c3)C(=O)N2C1` [PP1674], in assay [1], the Kd was found to be 0.036 nM. Moreover, in assay [2], the “NRAS/KRAS (KD ratio)” value was “A (a compound having 10 or more and less than 20 is denoted as A)”. Further, the IC50 in assay [3] came to 5.1 nM. The “HRAS/KRAS (KD ratio)” value in assay [4] was “A (a compound having 10 or more and less than 20 is denoted as A)”.
For the compound `CCC[C@H]1C(=O)N[C@@H]([C@@H](C)CC)C(=O)N(C)CC(=O)N(C)[C@H]2C/C=C\CCN(C2=O)[C@@H](Cc2ccc(C(F)(F)F)cc2)C(=O)N(C)CC(=O)N[C@@H](CCc2cc(F)c(C(F)(F)F)c(F)c2)C(=O)N2C[C@@H](C)C[C@H]2C(=O)NC2(CC(C)(C)C2)C(=O)N(C)[C@@H](C2CCCC2)C(=O)N(C)[C@H](C(=O)N(C)C)CC(=O)N1C` [PP1683], in assay [1], the Kd was 0.097 nM. The “NRAS/KRAS (KD ratio)” value in assay [2] was “A (a compound having 10 or more and less than 20 is denoted as A)”. Besides, in assay [3], the IC50 amounted to 2.5 nM. In assay [4], the “HRAS/KRAS (KD ratio)” value was “A (a compound having 10 or more and less than 20 is denoted as A)”.
`CCO[C@@H]1C[C@H]2C(=O)N(C)C3(CCC3)C(=O)N(C)[C@@H](C3CCCC3)C(=O)N(C)[C@H](C(=O)N(C)C)CC(=O)N(C)[C@@H](CC)C(=O)N[C@@H]([C@@H](C)CC)C(=O)N3CCC[C@H]3C(=O)N(C)[C@H]3C/C=C\CCN(C3=O)[C@@H](Cc3ccc(C)cc3)C(=O)N(C)CC(=O)N[C@@H](CCc3cc(F)c(C(F)(F)F)c(F)c3)C(=O)N2C1` [PP1785]: the Kd in assay [1] came to 0.051 nM. Moreover, in assay [2], the “NRAS/KRAS (KD ratio)” value is “A (a compound having 10 or more and less than 20 is denoted as A)”. In assay [3], the IC50 amounted to 6.9 nM. Further, the “HRAS/KRAS (KD ratio)” value in assay [4] is “A (a compound having 10 or more and less than 20 is denoted as A)”.
